From publication PMC8724251, “A Supramolecular Nanoparticle of Pemetrexed Improves the Anti-Tumor Effect by Inhibiting Mitochondrial Energy Metabolism” (Frontiers in Bioengineering and Biotechnology, 2021)
Like-named read-outs stand apart in the source and are kept apart here. Square brackets hold non-standard residues; d marks the D form. Ends that are not written are not given here. Peptide text beside a SMILES is read from it. * marks the point of attachment. ξ: configuration not given here. X1 = Nc1nc2[nH]cc(CCc3ccc(C(=O)*)cc3)c2c(=O)[nH]1; ξE = NC(CCC(=O)O)C(=O)O

Columns and labels:
A549 cells [1] = test: MTT viability assay, A549 cells
Procedure: (§1) Lewis lung cancer (LLC) and A549 cells (100 µl) were plated at a concentration of 5 × 10^3 cells/well in a flat-bottomed 96-well plate on Day 0. […] Then, the culture medium was removed, and MTT (0.5 mg/ml) was added to each well and incubated for 4 h. The supernatant was discarded, and dimethyl sulfoxide (100 µl) was used to completely dissolve the crystals.

LLC cells [2] = test: Live/dead assay (calcein-AM / EthD-1), LLC cells; type: cell-based; conditions: 6 μM, 72 h, calcein-AM/EthD-1, microscopy
Procedure: (§2) LLC cells and A549 cells (5,000 cells/well) were plated in 96-well plates and cultured for 24 h. Then, the cells were cocultured with 6 and 12 µM PEM and PEM-FFRGD for 72 h, respectively. The cells were washed with PBS and stained with calcein-AM and ethidium homodimer-1 (EthD-1) for 15 min. Then, the cells were viewed under microscopy (TI-S, Nikon, United States).

Lewis lung tumors = test: In vivo antitumor efficacy in LLC tumor-bearing mice; set-up: species or system C57BL/6J mice; conditions: LLC subcutaneous tumors, i.v., 20 mg/kg, two injections, tumor volumes within 2 weeks, n = 5
Procedure: (§3) C57BL/6J mice were subcutaneously inoculated with Lewis lung tumors and then randomly divided into four groups (5 mice per group) when the tumor sizes were approximately 100 mm^3. Mice in Groups 1 and 2 received PBS and FFRGD gels through i.v. injections, while mice in Groups 3 and 4 were administered 20 mg/kg PEM and PEM-FFRGD nanoparticles by i.v. injection. Repeated injections were administered on Days 1 and 5. Tumor size and body weight were monitored every 2 days, and the tumor volume was calculated according to the following formula: tumor volume (V, mm^3) = (tumor width)^2 × (tumor length)/2.

LLC cells [3] = test: MTT viability assay, LLC cells
Procedure: as §1

[4] = Body weight and serum TNFα, IL-6, ALT, AST in LLC tumor-bearing mice; type: in vivo, C57BL/6J mice; conditions: for mouse weight: i.v., monitored every 2 days
Procedure: as §3

A549 cells [5] = test: Live/dead assay (calcein-AM / EthD-1), A549 cells; type: cell-based; conditions: 12 μM, 72 h, calcein-AM/EthD-1, microscopy
Procedure: as §2

[6] = LLC tumor-bearing mice, i.v. 20 mg/kg, n = 5

Compound | cytotoxicity toward A549 cells, 24 h (A549 cells [1]) | cell killing in live/dead staining, LLC cells (LLC cells [2]) | tumor growth (Lewis lung tumors) | cytotoxicity toward LLC cells, 24 h (LLC cells [3]) | mouse weight ([4]; LLC tumor-bearing mice, n = 5) | cell killing in live/dead staining, A549 cells (A549 cells [5]) | cytotoxicity toward A549 cells, 24 h (A549 cells [1]; MTT, different concentrations, 24 h incubation) | cytotoxicity toward A549 cells, 48 h (A549 cells [1]; MTT, different concentrations, 48 h incubation, viability lower than with PEM) | cytotoxic activity toward A549 cells compared with PEM alone (A549 cells [1]; MTT, series of concentrations, 72 h) | cytotoxic activity toward LLC cells compared with PEM alone (LLC cells [3]) | cytotoxicity toward LLC cells, 48 h (LLC cells [3]) | serum level of ALT versus PBS and PEM alone [4, 6] | serum level of AST versus PBS and PEM alone [4, 6] | serum level of IL-6 versus PBS and PEM alone [4, 6] | serum level of TNFα versus PBS and PEM alone [4, 6] | systemic toxicity in mice ([4]; from body weight and serum TNFα, IL-6, ALT, AST) | cell toxicity at 100 μM (A549 cells) (A549 cells [1]; MTT, 100 μM, 72 h) | cell toxicity at 100 μM (LLC cells) (LLC cells [3]; MTT, 100 μM, 72 h)
Nc1nc2[nH]cc(CCc3ccc(C(=O)N[C@@H](CCC(=O)O)C(=O)O)cc3)c2c(=O)[nH]1 [PEM, Pemetrexed] | no cytotoxicity | could kill most cells | significantly inhibited | no cytotoxicity | no influence on mouse weight | could kill most cells |  |  |  |  |  |  |  |  |  |  |  | 
N=C(N)NCCC[C@H](NC(=O)[C@H](Cc1ccccc1)NC(=O)[C@H](Cc1ccccc1)NC(=O)C(CCC(=O)O)NC(=O)c1ccc(CCc2c[nH]c3nc(N)[nH]c(=O)c23)cc1)C(=O)NCC(=O)N[C@@H](CC(=O)O)C(=O)O (some centres unmarked) [PEM-FFRGD] (X1-[ξE]FFRGD-OH) |  |  |  | no cytotoxicity |  |  | no cytotoxicity | showed cytotoxic activity | stronger cytotoxic activity | stronger cytotoxic activity | showed cytotoxic activity | not different | not different | not different | not different | no systemic toxicity |  | 
FFRGD [FFRGD, reference compound] |  |  |  |  | no influence on mouse weight |  |  |  |  |  |  |  |  |  |  |  | did not display any distinct cell toxicity | did not display any distinct cell toxicity
